Reference: ChEMBL document CHEMBL1133086, “Design, synthesis, and X-ray crystal structure of a potent dual inhibitor of thymidylate synthase and dihydrofolate reductase as an antitumor agent” (J Med Chem, 2000)

Legend:
CCRF-CEM [1] = test: Growth inhibition of human T-lymphoblastic leukemia cell line CCRF-CEM in culture; type: functional; conditions: read-out: ED50 (the source's name)
[2] = biological target: Trifunctional purine biosynthetic protein adenosine-3 (Homo sapiens, UniProt P22102); test: Inhibition against GAR transformylase; In active
[3] = biological target: T1, Bifunctional purine biosynthesis protein ATIC (Homo sapiens, UniProt P31939); test: Inhibition against […]-4-carboxamide ribonucleotide formyltransferase (AICAR formyltransferase); In active
Thymidylate synthase [4] = biological target: T2, Thymidylate synthase (Homo sapiens, UniProt P04818); test: Inhibitory concentration against human TS
[5] = biological target: T3, Bifunctional dihydrofolate reductase-thymidylate synthase (Toxoplasma gondii, UniProt Q07422)
T3 sequence (Q07422 whole entry): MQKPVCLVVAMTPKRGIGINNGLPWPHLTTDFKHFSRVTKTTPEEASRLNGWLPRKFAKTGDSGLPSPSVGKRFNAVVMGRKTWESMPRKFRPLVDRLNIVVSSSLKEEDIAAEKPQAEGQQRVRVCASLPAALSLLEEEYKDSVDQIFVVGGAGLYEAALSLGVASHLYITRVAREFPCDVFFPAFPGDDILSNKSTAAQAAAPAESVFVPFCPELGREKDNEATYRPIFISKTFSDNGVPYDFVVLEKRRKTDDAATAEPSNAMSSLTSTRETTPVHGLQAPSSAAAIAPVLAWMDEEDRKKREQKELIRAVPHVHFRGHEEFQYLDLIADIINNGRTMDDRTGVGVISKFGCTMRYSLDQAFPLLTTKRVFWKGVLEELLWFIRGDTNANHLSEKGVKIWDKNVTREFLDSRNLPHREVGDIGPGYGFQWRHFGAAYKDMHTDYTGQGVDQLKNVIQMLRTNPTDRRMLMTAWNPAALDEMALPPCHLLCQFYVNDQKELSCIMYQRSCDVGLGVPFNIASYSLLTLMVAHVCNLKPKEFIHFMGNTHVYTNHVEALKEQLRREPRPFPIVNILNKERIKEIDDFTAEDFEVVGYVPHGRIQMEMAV
Description: Inhibitory concentration against isolated Toxoplasma gondii DHFR (dihydrofolate reductase)

Dihydrofolate reductase [6] = biological target: Dihydrofolate reductase (Escherichia coli, UniProt P0ABQ4)
Description: Inhibitory concentration against isolated Escherichia coli Dihydrofolate reductase

Dihydrofolate reductase [7] = biological target: T4, Dihydrofolate reductase (Homo sapiens, UniProt P00374); test: Inhibitory concentration against isolated human Dihydrofolate reductase
T4 sequence (P00374 whole entry): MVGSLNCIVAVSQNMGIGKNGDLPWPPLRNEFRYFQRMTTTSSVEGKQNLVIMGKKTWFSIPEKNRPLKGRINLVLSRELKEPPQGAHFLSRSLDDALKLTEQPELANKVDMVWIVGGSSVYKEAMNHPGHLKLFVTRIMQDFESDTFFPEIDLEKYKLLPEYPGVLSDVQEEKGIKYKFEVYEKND

Dihydrofolate reductase [8] = biological target: Dihydrofolate reductase (Lactobacillus casei, UniProt P00381); test: Inhibitory concentration against isolated Lactobacillus casei Dihydrofolate reductase; set-up: species or system Lacticaseibacillus casei
Dihydrofolate reductase [9] = biological target: T5, Dihydrofolate reductase (Pneumocystis carinii, UniProt P16184)
T5 sequence (P16184 whole entry): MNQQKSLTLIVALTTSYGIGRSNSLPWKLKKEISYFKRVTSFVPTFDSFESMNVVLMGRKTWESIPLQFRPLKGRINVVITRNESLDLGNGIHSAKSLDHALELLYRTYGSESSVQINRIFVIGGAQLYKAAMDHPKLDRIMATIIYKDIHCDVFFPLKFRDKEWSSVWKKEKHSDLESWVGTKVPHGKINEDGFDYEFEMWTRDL
Description: Inhibitory concentration against isolated Pneumocystis carinii DHFR (Dihydrofolate reductase)

carcinoma cell line [10] = test: Tested for their inhibition of growth of FaDu head on carcinoma cell lines.; type: functional, cell-based; conditions: Homo sapiens
Thymidylate synthase [11] = biological target: Thymidylate synthase (Escherichia coli, UniProt C3SWJ7); test: Inhibitory concentration against isolated Escherichia coli Thymidylate synthase
SF-539 = test: Cytotoxicity was tested against CNS cancer SF-539 tumor cell lines.; type: functional; conditions: Homo sapiens
CCRF-CEM [12] = test: Tested for their growth inhibition of CCRF-CEM human leukemia subline resistant as a result of decrease polyglutamylation.; type: functional, cell-based
CCRF-CEM [13] = test: Tested for their growth inhibition of CCRF-CEM human leukemia subline resistant as a result of decrease in uptake.; type: functional, cell-based
carcinoma cell line [14] = test: Tested for their inhibition of growth of CCRF-CEM human leukemia on carcinoma cell lines.; type: functional, cell-based
ACHN = test: Cytotoxicity was tested against renal cancer ACHN tumor cell lines.; type: functional; conditions: Homo sapiens
MCF7 = test: Cytotoxicity was tested against breast cancer MCF-7 tumor cell lines.; type: functional; conditions: Homo sapiens
Thymidylate synthase [15] = biological target: T2, Thymidylate synthase; test: Inhibitory concentration against isolated Thymidylate synthase
Homo sapiens [16] = organism: Homo sapiens; test: The maximum velocity at which substrate concentration is stabilised is determined for compound as substrate for recombinant human folyl-poly-glutamate synthase (FPGS); type: ADME; conditions: in vivo
CCRF-CEM [17] = test: Tested for their growth inhibition of CCRF-CEM human leukemia subline resistant as a result of increase in wild type DHFR protein and activity.; type: functional, cell-based
CCRF-CEM [18] = test: Concentration required to inhibit growth against CCRF-CEM cell; type: functional, cell-based; conditions: Homo sapiens
Thymidylate synthase [19] = biological target: Thymidylate synthase (Rattus norvegicus, UniProt P45352); test: Inhibitory concentration against isolated rat thymidylate synthase
HCC 2998 = test: Cytotoxicity against colon cancer HCC2998 tumor cell lines.; type: functional; conditions: Homo sapiens
NCI-H226 = test: Cytotoxicity against non small cell lung cancer NCI-H226 tumor cell lines.; type: functional; conditions: Homo sapiens
HCT-116 = test: Cytotoxicity was tested against colon cancer HCT116 tumor cell lines.; type: functional; conditions: Homo sapiens
Thymidylate synthase [20] = biological target: T6, Thymidylate synthase (Lactobacillus casei, UniProt P00469); test: Inhibitory concentration against isolated Lactobacillus casei Thymidylate synthase; set-up: species or system Lacticaseibacillus casei
T6 sequence (P00469 whole entry): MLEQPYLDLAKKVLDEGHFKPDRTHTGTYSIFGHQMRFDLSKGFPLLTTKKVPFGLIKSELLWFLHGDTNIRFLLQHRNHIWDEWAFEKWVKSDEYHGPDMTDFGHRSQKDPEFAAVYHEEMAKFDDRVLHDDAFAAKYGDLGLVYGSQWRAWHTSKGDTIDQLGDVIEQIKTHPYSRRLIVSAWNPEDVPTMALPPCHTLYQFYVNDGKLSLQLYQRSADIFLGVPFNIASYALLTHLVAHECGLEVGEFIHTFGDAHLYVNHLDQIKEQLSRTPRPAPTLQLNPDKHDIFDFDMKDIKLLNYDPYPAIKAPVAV

NCI-H460 = test: Cytotoxicity against non small cell lung cancer NCI-H460 tumor cell lines.; type: functional; conditions: Homo sapiens
MOLT-4 = test: Cytotoxicity against leukemia MOLT-4 tumor cell lines.; type: functional; conditions: Homo sapiens
Homo sapiens [21] = organism: Homo sapiens; test: Ratio between Vmax and Km for compound as substrate for recombinant human folyl-poly-glutamate synthase (FPGS); type: ADME; conditions: in vivo
[22] = biological target: T1, Bifunctional purine biosynthesis protein ATIC; test: Inhibition against […]-4-carboxamide ribonucleotide formyltransferase (AICAR formyltransferase); inactive
Thymidylate synthase [23] = biological target: T2, Thymidylate synthase; test: Inhibitory concentration against human Thymidylate synthase(TS)
FaDu = test: Growth inhibition of human squamous cell carcinoma FaDu in culture; type: functional; conditions: read-out: ED50 (the source's name)
[24] = substrate: Cc1nc(N)nc2[nH]cc(CCc3ccc(C(=O)N[C@@H](CCC(=O)O)C(=O)O)cc3)c12; test: (§1) Activity as substrate for recombinant human folyl-poly-glutamate synthase (FPGS).
[25] = substrate: Cc1nc(N)nc2c1c(CCc1ccc(C(=O)N[C@@H](CCC(=O)O)C(=O)O)cc1)cn2Cc1ccccc1; test: as §1

T2 sequence (P04818 whole entry): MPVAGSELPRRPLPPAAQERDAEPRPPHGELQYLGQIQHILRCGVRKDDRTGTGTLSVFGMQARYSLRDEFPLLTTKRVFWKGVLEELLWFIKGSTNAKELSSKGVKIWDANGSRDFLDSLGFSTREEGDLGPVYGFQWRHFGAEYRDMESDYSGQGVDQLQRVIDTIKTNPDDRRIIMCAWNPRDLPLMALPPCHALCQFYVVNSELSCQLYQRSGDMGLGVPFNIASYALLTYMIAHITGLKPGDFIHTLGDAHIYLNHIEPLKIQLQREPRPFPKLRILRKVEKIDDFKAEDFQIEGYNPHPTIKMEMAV
Sequence of Dihydrofolate reductase (Lactobacillus casei, UniProt P00381) (P00381 whole entry): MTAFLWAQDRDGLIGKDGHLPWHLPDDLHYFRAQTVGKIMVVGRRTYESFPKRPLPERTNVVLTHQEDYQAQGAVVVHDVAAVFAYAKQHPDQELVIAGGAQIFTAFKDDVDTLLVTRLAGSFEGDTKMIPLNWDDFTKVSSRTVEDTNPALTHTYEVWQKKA
Sequence of Thymidylate synthase (Rattus norvegicus, UniProt P45352) (P45352 whole entry): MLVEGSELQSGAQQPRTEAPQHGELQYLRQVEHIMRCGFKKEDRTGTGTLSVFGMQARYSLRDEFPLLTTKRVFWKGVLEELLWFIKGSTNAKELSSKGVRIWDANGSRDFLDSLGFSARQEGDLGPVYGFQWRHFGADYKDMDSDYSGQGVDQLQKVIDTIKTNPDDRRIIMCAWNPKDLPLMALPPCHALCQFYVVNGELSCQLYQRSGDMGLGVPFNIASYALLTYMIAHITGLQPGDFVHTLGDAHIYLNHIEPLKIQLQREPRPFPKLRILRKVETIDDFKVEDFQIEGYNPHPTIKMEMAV
Sequence of Dihydrofolate reductase (Escherichia coli, UniProt P0ABQ4) (P0ABQ4 whole entry): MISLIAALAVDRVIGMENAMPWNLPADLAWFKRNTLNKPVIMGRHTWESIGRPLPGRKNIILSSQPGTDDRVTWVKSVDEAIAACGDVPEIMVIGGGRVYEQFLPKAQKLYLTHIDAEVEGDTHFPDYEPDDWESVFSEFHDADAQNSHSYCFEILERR
Sequence of Trifunctional purine biosynthetic protein adenosine-3 (P22102 whole entry): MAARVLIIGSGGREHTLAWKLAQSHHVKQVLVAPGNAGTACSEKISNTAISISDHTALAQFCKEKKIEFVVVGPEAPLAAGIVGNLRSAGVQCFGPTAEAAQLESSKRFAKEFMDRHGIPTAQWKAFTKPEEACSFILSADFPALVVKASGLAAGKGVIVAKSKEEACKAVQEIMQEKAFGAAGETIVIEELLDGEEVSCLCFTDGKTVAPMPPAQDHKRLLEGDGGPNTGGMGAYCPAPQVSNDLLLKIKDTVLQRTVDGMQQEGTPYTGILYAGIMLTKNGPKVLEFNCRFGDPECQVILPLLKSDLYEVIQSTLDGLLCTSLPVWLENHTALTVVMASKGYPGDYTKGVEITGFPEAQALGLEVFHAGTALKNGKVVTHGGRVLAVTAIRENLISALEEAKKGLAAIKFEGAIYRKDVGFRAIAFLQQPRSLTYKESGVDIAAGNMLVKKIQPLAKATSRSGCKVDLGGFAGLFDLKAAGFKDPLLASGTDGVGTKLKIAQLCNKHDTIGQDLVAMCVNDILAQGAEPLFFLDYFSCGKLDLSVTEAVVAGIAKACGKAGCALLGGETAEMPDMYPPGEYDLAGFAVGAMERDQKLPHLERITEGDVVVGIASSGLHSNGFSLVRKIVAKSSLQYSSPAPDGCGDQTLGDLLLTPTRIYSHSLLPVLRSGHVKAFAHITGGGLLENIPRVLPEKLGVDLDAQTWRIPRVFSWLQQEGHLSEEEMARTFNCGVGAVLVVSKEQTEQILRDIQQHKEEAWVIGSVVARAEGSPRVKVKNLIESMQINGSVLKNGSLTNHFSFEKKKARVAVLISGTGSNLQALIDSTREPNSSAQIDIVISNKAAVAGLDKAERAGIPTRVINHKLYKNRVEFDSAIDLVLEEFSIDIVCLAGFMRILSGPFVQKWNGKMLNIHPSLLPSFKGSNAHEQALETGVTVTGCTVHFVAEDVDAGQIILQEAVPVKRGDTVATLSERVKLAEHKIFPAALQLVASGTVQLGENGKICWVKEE
T1 sequence (P31939 whole entry): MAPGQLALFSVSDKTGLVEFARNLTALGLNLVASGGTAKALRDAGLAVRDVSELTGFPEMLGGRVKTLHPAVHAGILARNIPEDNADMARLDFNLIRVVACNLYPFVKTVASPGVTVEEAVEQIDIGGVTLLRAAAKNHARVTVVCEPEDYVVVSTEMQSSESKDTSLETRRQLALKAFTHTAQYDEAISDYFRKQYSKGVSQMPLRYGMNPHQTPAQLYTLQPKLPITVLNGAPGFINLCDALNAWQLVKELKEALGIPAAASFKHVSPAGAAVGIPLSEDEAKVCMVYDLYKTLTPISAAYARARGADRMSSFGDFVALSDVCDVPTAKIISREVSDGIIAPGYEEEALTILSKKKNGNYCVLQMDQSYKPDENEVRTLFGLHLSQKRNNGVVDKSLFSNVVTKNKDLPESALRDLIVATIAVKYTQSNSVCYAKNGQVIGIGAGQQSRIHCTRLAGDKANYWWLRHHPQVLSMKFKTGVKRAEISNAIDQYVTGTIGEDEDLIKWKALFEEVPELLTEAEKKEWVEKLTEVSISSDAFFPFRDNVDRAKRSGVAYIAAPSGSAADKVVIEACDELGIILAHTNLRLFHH
Sequence of Thymidylate synthase (Escherichia coli, UniProt C3SWJ7) (C3SWJ7 whole entry): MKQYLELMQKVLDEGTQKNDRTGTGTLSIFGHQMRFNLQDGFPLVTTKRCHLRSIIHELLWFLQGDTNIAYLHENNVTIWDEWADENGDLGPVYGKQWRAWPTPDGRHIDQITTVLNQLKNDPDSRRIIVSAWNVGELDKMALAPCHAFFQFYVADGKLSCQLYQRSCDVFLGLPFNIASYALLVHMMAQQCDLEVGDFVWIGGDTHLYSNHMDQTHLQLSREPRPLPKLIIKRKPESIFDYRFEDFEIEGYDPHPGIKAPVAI

Nc1nc(N)c2c(CNCc3ccc(C(=O)N[C@@H](CCC(=O)O)C(=O)O)cc3)coc2n1
EC50 (CCRF-CEM [1]): 30500 nM

Nc1nc(N)c2c(CNc3ccc(C(=O)N[C@@H](CCC(=O)O)C(=O)O)cc3)coc2n1
IC50 [2]: Not Active | IC50 [3]: Not Active | IC50 (Thymidylate synthase [4]): > 200000 nM

Cc1cn([C@@H]2O[C@H](COP(=O)(O)O)[C@@H](O)[C@H]2O)c(=O)[nH]c1=O
IC50 [5]: 3400 nM | IC50 (Dihydrofolate reductase [6]): 20 nM | IC50 (Dihydrofolate reductase [7]): 340000 nM | IC50 (Dihydrofolate reductase [8]): 350 nM | IC50 (Dihydrofolate reductase [9]): 15000 nM

Cc1nc(N)nc2[nH]cc(CCc3ccc(C(=O)N[C@@H](CCC(=O)O)C(=O)O)cc3)c12
EC50 (carcinoma cell line [10]): 7 nM | IC50 (Thymidylate synthase [11]): 2000 nM | GI50 (SF-539): < 10 nM | EC50 (CCRF-CEM [12]): 18.5 nM | EC50 (CCRF-CEM [13]): 575 nM | EC50 (carcinoma cell line [14]): 12.5 nM | IC50 [5]: 1200 nM | GI50 (ACHN): < 10 nM | GI50 (MCF7): 169 nM | IC50 (Thymidylate synthase [15]): 1000 nM | Vmax (Homo sapiens [16]): 0.17 | EC50 (CCRF-CEM [17]): 158 nM | EC50 (CCRF-CEM [18]): 12.5 nM | IC50 (Dihydrofolate reductase [7]): 800 nM | IC50 (Thymidylate synthase [19]): 2000 nM | GI50 (HCC 2998): < 10 nM | GI50 (NCI-H226): 61.4 nM | GI50 (HCT-116): 7110 nM | IC50 (Thymidylate synthase [20]): 9000 nM | GI50 (NCI-H460): < 10 nM | IC50 (Dihydrofolate reductase [8]): 24 nM | IC50 (Dihydrofolate reductase [9]): 1200 nM | GI50 (MOLT-4): < 10 nM

Nc1nc(N)c2nc(CNc3ccc(C(=O)N[C@@H](CCC(=O)O)C(=O)O)cc3)cnc2n1 [AMINOPTERIN]
Ratio (Homo sapiens [21]): 0.21 | Vmax (Homo sapiens [16]): 1

CN(Cc1coc2nc(N)nc(N)c12)c1ccc(C(=O)N[C@@H](CCC(=O)O)C(=O)O)cc1 [FURO[2,3D]PYRIMIDINE ANTIFOLATE]
IC50 [2]: Not Active | IC50 [22]: Not Active | IC50 (Thymidylate synthase [23]): > 200000 nM | EC50 (CCRF-CEM [1]): 47 nM | EC50 (FaDu): 55 nM

Nc1nc(N)c2c(CCc3ccc(C(=O)N[C@@H](CCC(=O)O)C(=O)O)cc3)coc2n1
EC50 (CCRF-CEM [1]): 250 nM

Cc1nc2ccc(CN(C)c3ccc(C(=O)N[C@@H](CCC(=O)O)C(=O)O)s3)cc2c(=O)[nH]1 [RALTITREXED]
IC50 (Thymidylate synthase [19]): 900 nM | IC50 (Thymidylate synthase [20]): 8000 nM

Nc1nc2[nH]cc(CCc3ccc(C(=O)N[C@@H](CCC(=O)O)C(=O)O)cc3)c2c(=O)[nH]1 [PEMETREXED]
IC50 (Thymidylate synthase [15]): 110000 nM | IC50 (Thymidylate synthase [19]): 20000 nM | IC50 (Thymidylate synthase [20]): 20000 nM

Cc1nc(N)nc2c1c(CCc1ccc(C(=O)N[C@@H](CCC(=O)O)C(=O)O)cc1)cn2Cc1ccccc1
IC50 (carcinoma cell line [10]): > 20000 nM | IC50 (Thymidylate synthase [11]): 16000 nM | IC50 (CCRF-CEM [12]): > 20000 nM | IC50 (carcinoma cell line [14]): > 10000 nM | IC50 [5]: > 19000 nM | IC50 (Dihydrofolate reductase [6]): > 19000 nM | Ratio (Homo sapiens [21]): 0.02 | IC50 (Thymidylate synthase [15]): > 16000 nM | Vmax (Homo sapiens [16]): 0.65 | IC50 (CCRF-CEM [18]): > 10000 nM | IC50 (Dihydrofolate reductase [7]): > 19000 nM | IC50 (Thymidylate synthase [19]): > 16000 nM | IC50 (Thymidylate synthase [20]): 310 nM | IC50 (Dihydrofolate reductase [8]): 19000 nM | IC50 (Dihydrofolate reductase [9]): > 19000 nM

B1: Folylpolyglutamate synthase, mitochondrial (Homo sapiens), Q05932 (protein)
chain: MSRARSHLRAALFLAAASARGITTQVAARRGLSAWPVPQEPSMEYQDAVRMLNTLQTNAGYLEQVKRQRGDPQTQLEAMELYLARSGLQVEDLDRLNIIHVTGTKGKGSTCAFTECILRSYGLKTGFFSSPHLVQVRERIRINGQPISPELFTKYFWRLYHRLEETKDGSCVSMPPYFRFLTLMAFHVFLQEKVDLAVVEVGIGGAYDCTNIIRKPVVCGVSSLGIDHTSLLGDTVEKIAWQKGGIFKQGVPAFTVLQPEGPLAVLRDRAQQISCPLYLCPMLEALEEGGPPLTLGLEGEHQRSNAALALQLAHCWLQRQDRHGAGEPKASRPGLLWQLPLAPVFQPTSHMRLGLRNTEWPGRTQVLRRGPLTWYLDGAHTASSAQACVRWFRQALQGRERPSGGPEVRVLLFNATGDRDPAALLKLLQPCQFDYAVFCPNLTEVSSTGNADQQNFTVTLDQVLLRCLEHQQHWNHLDEEQASPDLWSAPSPEPGGSASLLLAPHPPHTCSASSLVFSCISHALQWISQGRDPIFQPPSPPKGLLTHPVAHSGASILREAAAIHVLVTGSLHLVGGVLKLLEPALSQ
Km [24]: < 1 µM | Km [25]: 37 µM
